According to patent US12655171B2, “Compounds for activating invariant natural killer T-cells and methods of use in eliminating inflammatory senescent cells” (Deciduous Therapeutics, Inc., priority 2021, dated 2026):

What was measured:
primary human iNKT cells = assay: Cytokine secretion of primary human iNKT cells co-cultured with drug-loaded BWSTIM cells; assay type: cell-based; conditions: for secretion of IFNγ / secretion of IL-4 / secretion of IL-6 / secretion of TNFα: GVK compounds vs absence of drug loading, α-GalCer vs GVK compounds, media collected 2 days later, FIG. 6C; for Primary iNKT cytokine release: IL-4, IL-6, IFNγ or TNFα
Experimental: In order to determine the activation profile induced by the compounds described herein, primary human iNKT cells were co-cultured with drug-loaded BWSTIM cells.
Day 0: PBMCs were isolated from human blood using the STEMCELL TECHNOLOGIES™ SepMate™ PBMC isolation system. iNKT cells were then selected using the Miltenyi NKT magnetic cell separation kit.
Day 2: DCD molecules or α-GalCer were both dissolved in DMSO at a 5 mg/mL stock solution. BWSTIM cells were fixed with mitomycin C, then loaded with 10 μg/mL of DCD molecules or α-GalCer for 4 hours at 37° C. at a concentration of 20 k cells/well in 200 μL of media in a u-bottom 96 well dish. Cells were co-cultured with 80 k 6B11+ selected primary human iNKT cells.
D4: Media was collected. Cytokines were measured using the Satorious 4Plex kit on the iQue3 cytometer.
GVK molecules or α-GalCer were both dissolved in DMSO at a 5 mg/mL stock solution. BWSTIM cells were loaded with compounds for 4 hours at 37° C. at a concentration of 20 k cells/well in 200 μL of media in a u-bottom 96 well dish. Cells were co-cultured with 100 k 6B11+ selected primary human iNKT cells. Media was collected 2 days later. Cytokines were measured using the Satorious 4Plex kit on the iQue3 cytometer.

DN3.2 = assay: IL-2 Secretion (A20 + DN3.2); assay type: cell-based, mouse
human iTCR [1] = assay: In vitro activation of human iTCR through Jurkat reporter cell line (JiNKT, GFP under NFkB promoter) with drug-loaded BWSTIM cells; assay type: cell-based; conditions: 1 μg/mL; for GFP expression compared to the negative control: BWSTIM + JiNKT, 24 hours, FIG. 6A; for % GFP hiNKT binding (BWSTIM + JiNKT) 1 μg/mL, away from negative control: difference from negative control
Experimental: In order to determine the human iTCR activation potential induced by the compounds described herein, a jurkat cell line (JiNKT) was transfected with the human iTCR, and GFP under the NFkB promoter (cell line licensed from the Medical University of Vienna). A BWS147 cell line (BWSTIM) was also transfected with CD80 and CD1d to act as the antigen-presenting cell.
(§1) DCD molecules or α-GalCer were both dissolved in DMSO at a 5 mg/mL stock solution. BWSTIM cells were loaded with DCD molecules or α-GalCer at varying concentrations for 4 hours at 37° C. at a concentration of 20 k cells/well in 200 μL of media in a u-bottom 96 well dish. BWSTIM cells were washed 2× with media, then incubated with JiNKT cells at a concentration of 80 k cells/well in a u-bottom 96 well dish. Cells were co-cultured for 18 to 24 hours. The percentage of cells expressing high levels of GFP was measured through flow cytometry (after gating out the mCD45+ BWSTIM cells).
(§2) A jurkat cell line (JiNKT) was transfected with the human iTCR, and GFP under the NFkB promoter. A BWS147 cell line (BWSTIM) was also transfected with CD80 and CD1d to act as the antigen-presenting cell. A mouse iNKT hybridoma cell line (DN3.2) was also used as the iNKT. […]
as §1, with “GVK” for “DCD”, “compounds” for “DCD molecules or α-GalCer at varying concentrations”, “for” for “for 18 to”, “cytometry. 1 μg/mL of molecule GVK1a, GVK1b, GVK1c, or GVK1f was incubated with BWSTIM+JiNKT, and compared to α-GalCer.” for “cytometry (after gating out the mCD45+ BWSTIM cells).”

mouse iTCR = assay: In vitro activation of mouse iTCR, DN3.2 iNKT hybridoma with drug-loaded BWSTIM cells, IL-2 secretion; assay type: cell-based; conditions: 48 hours co-culture; FIG. 6B
Experimental: In order to determine the mouse iTCR activation potential induced by the compounds described herein, a mouse iNKT hybridoma cell line (DN3.2) from the La Jolla Institute for Allergy and Immunology were used as the iNKT. The BWS147 cell line (BWSTIM) with CD80 and CD1d acted as the antigen-presenting cell.
(§3) DCD molecules or α-GalCer were both dissolved in DMSO at a 5 mg/mL stock solution. BWSTIM cells were loaded with DCD molecules or α-GalCer of varying concentrations for 4 hours at 37° C. at a concentration of 20 k cells/well in 200 μL of media in a u-bottom 96 well dish. BWSTIM cells were washed 2× with media, then incubated with DN3.2 cells at a concentration of 80 k cells/well in a u-bottom 96 well dish. Cells were co-cultured for 48 hours. Media was collected and IL-2 was measured using the CisBio HTRF ELISA detection kit.
as §2
as §3, with “GVK” for “DCD”, “compounds” for “DCD molecules or α-GalCer of varying concentrations”

iNKT cells = assay: Diet induced obesity (HFD) mouse model: iNKT cell expansion in spleen or eWAT; assay type: in vivo, C57BL/6J mice; conditions: HFD mice, I.P. 2 g, four days post-injection
Experimental: (§4) Senescence is a feature of pre-adipocytes in obese individuals. To study the efficacy of the molecules described herein in decreasing senescence in fat, a diet induced obesity high fat diet (HFD) mouse model was used. 22-week-old HFD mice were injected with α-GalCer as a control and compared with the compounds of the present disclosure. The blood and spleen (or adipose tissue) were collected to measure iNKT activation and expansion, respectively. Cells in the eWAT (adipose tissue) were also collected and measured for % senescent cells. HFD mice were compared to non-HFD (normal diet) mice.
(§5) 22-week-old C57BL/6J mice on a chow or high-fat diet (HFD) were injected (I.P) with […] of α-GalCer, compound DCD-101 or compound DCD-154. Molecules were either dissolved in DMSO at a 5 mg/mL stock solution, or formulated into liposomes through thin-film rehydration, then extrusion through 200 nm filters. Liposome-based formulations were constructed using soy phosphatidylcholine, cholesterol, and DCD or α-GalCer in a 2:1:0.15 ratio. Two or twenty hours post-injection, blood was collected from the tail to measure the level of IFNγ using ELISA. Four days post-injection, mice were sacrificed to collect eWAT or spleen. Spleen was used to measure the number of iNKT cells, and eWAT was used to measure the number of iNKT cells and senescent cells using flow cytometry. iNKT cells were identified in the digested adipose tissue by gating live cells and mouse CD1d-α-GalCer tetramer+ cells. Senescent cells were measured withing the processes adipose tissue by selecting mCD45− cells, and C12FDG^HIGH cells.

senescent cells in eWAT = assay: Diet induced obesity (HFD) mouse model: senescent cells (C12FDG+) in eWAT; assay type: in vivo, C57BL/6J mice; conditions: HFD mice, four days post-injection; FIG. 5E
Experimental: as §4, §5

senescent cells = assay: Selective killing of senescent cells in vitro by activated human iNKT cells; assay type: cell-based
Experimental: Human iNKT cells were isolated and activated by incubation with α-GalCer. Activated iNKT cells were combined with samples containing healthy cells and senescent cells.

IFNγ = assay: Diet induced obesity (HFD) mouse model: serum IFNγ (ELISA); assay type: in vivo, C57BL/6J mice
Experimental: as §4, §5

human iTCR [2] = assay: % GFP hiNKT binding (recombinant protein CD1d + JiNKT); assay type: cell-based

% GFP hiNKT binding (recombinant protein CD1d + JiNKT) (human iTCR [2]) | SMILES | secretion of IFNγ (primary human iNKT cells) | secretion of IL-4 (primary human iNKT cells) | secretion of IL-6 (primary human iNKT cells) | secretion of TNFα (primary human iNKT cells) | Primary iNKT cytokine release (primary human iNKT cells) | IL-2 Secretion (A20 + DN3.2) (DN3.2) | GFP expression compared to the negative control (human iTCR [1]) | % GFP hiNKT binding (BWSTIM + JiNKT) 1 μg/mL, away from negative control (human iTCR [1]) | expression of IL-2 in the DN3.2 cell line when loaded on BWSTIM CD1d (mouse iTCR) | expansion of immune (iNKT) cells in HFD mouse spleen (iNKT cells; FIG. 5A) | expansion of immune (iNKT) cells in HFD mouse eWAT (iNKT cells; percent iNKT cells of live cells, FIG. 5B) | accumulation of senescent cells (C12FDG+) in eWAT (senescent cells in eWAT) | killing of senescent vs non-senescent cells by iNKT cells activated by the compound (senescent cells; evaluated after 8 hours and 18 hours, FIG. 7B) | presence of senescent vs non-senescent cells on incubation with iNKT cells activated by the compound (senescent cells; over a period of 18 hours, FIG. 7A) | levels of IFNγ in the HFD model (IFNγ; twenty hours post injection, FIG. 5D) | levels of serum IFNγ in the HFD model (IFNγ; two hours post injection, FIG. 5C) | % GFP hiNKT binding (BWSTIM + JiNKT) 1 μg/mL (human iTCR [1]; % GFP)
– | CCCCCCCCCCCCCCCCCCCCCCCCCC(=O)N[C@@H](CCC1OC(CO)C(O)C(O)C1O)[C@@H](O)[C@H](O)CCCCCCCCCCCCCC (stereo partly shown) [GVK1a] | did not increase secretion | did not increase secretion | did not increase secretion | did not increase secretion | No activation | Activated | did not induce GFP expression higher than the negative control | % <5 away from | – | – | – | – | – | – | – | – | –
– | CCCCCCCCCCCCCCCCCCCCCCCCCC(=O)N[C@@H](CCC1OC(CO)C(O)C(O)C1O)[C@@H](O)[C@H](O)CCCCCCCCCCCCCC (stereo partly shown) [GVK1b] | did not increase secretion | did not increase secretion | did not increase secretion | did not increase secretion | No activation | Does not | did not induce GFP expression higher than the negative control | % <5 away from | did not induce expression of IL-2 | – | – | – | – | – | – | – | –
% 30 | CCCCCCCCCCCCCCCCCCCCCCCCCC(=O)N[C@@H](CO[C@H]1O[C@H](CO)[C@H](O)[C@H](O)[C@H]1O)[C@H](O)[C@H](O)CCCCCCCCCCCCCC [α-GalCer, Alpha-galactosylceramide, reference compound] | significantly greater increase in the secretion | significantly greater increase in the secretion | significantly greater increase in the secretion | significantly greater increase in the secretion | – | – | induction remained high | – | – | caused expansion of immune cells in HFD mouse spleen | caused expansion of immune cells in HFD mouse eWAT | effective in decreasing the accumulation of senescent cells in eWAT | senescent cells were selectively killed whereas non-senescent cells were maintained | reduction in the presence of senescent cells over time whereas non-senescent cells were maintained | significantly increased levels of IFNγ | significantly increased levels of IFNγ | % 40-70
